{"source": "ChEMBL document CHEMBL1148821", "about": "“4-anilino-5-carboxamido-2-pyridone derivatives as noncompetitive inhibitors of mitogen-activated protein kinase kinase” (J Med Chem, 2007)", "key": {"[1]": {"experiment": "Toxicity in colon 26 tumor-bearing CD2F1 mouse assessed as lethality at 200 mg/kg", "assay_type": "organism-based", "parameters": "dose 200 mg/kg", "details": "in vivo, read-out: Activity"}, "[2]": {"experiment": "Toxicity in colon 26 tumor-bearing CD2F1 mouse assessed as lethality at 100 mg/kg", "assay_type": "organism-based", "parameters": "dose 100 mg/kg", "details": "in vivo, read-out: Activity"}}, "data": [{"smiles": "Cn1cc(C(N)=O)c(Nc2ccc(I)cc2F)cc1=O", "values": [{"measurement": "mortality", "setting": "[1]", "value": 100, "unit": "%"}, {"measurement": "mortality", "setting": "[2]", "value": 40, "unit": "%"}]}]}
